Source: patent US5688936A, “Vesicle membrane transport proteins” (priority 1993, dated 1997)
Entries after “also recorded” stand apart in the source; their conditions may differ. Where two headings read alike, the source gives them in different places.

Key:
[1] = tested on: central dopamine neurons; settings: primates; cited from earlier work
[2] = tested on: dopamine nerve terminals; settings: mice; cited from earlier work
[3] = biological target: T1, chromaffin granule amine transport protein (Rattus norvegicus, UniProt Q01818); assay: cell-based; format: cell-based; settings: for inhibition of vesicular amine uptake/transport (fluorescence assay, in words): concentrations of Table 1
T1 sequence (Q01818 1-521): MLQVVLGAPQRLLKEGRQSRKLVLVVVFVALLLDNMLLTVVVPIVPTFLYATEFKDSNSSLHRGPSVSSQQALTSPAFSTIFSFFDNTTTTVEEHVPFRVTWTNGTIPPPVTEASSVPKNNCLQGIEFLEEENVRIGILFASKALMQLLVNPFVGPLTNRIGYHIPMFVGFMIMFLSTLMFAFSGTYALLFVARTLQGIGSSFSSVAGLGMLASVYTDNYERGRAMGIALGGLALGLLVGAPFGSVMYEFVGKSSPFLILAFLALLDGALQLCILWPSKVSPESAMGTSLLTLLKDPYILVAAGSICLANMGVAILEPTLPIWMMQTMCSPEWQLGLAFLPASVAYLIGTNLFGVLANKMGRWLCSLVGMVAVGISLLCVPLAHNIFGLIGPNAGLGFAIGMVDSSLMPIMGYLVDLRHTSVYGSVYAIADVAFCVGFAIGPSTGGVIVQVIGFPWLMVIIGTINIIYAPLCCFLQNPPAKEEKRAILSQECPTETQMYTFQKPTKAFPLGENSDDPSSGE
Procedure: Uptake and cellular compartmentalization of loaded dopamine were performed by growing cells on poly-lysine-coated glass coverslips. […] The cells were then washed three times in 0.1M sodium phosphate, pH 7.4, and incubated at 4° C. in 2% glyoxylic acid/0.5 mg% MgCl2, pH 4.9-5.0 for three minutes as described by de la Torre, J. Neurosci. Meth. 3:1-5 (1980). Briefly, excess solution is wiped off the bottom and edges of the slide using absorbent paper, taking care not to touch the section. The coverslips were then drained thoroughly, dried in air at 45° C. heated to 80° C. for five minutes, inverted over mineral oil on glass slides and examined under fluorescence using the appropriate filters as described by Knigge et al., Brain Res. 120:393-405 (1977). Briefly, the preparations were infiltrated with warm immersion oil and examined in a Leitz MPV2 microspectrofluorometer equipped with Schoffel excitation and emission grating monochromators, photomultipliers, and ratio computing circuitry. Cells were scanned with either monochromatic light (370 nm) or narrow band excitation (S405, BG3) light for the purpose of identifying fluorescence within cells. Ploem illumination was used in combination with a X 63 or X 100 oil immersion objective.
Dopamine-loaded fluorescence was carried out as described in Example 1. […] Glyoxylic-acid-induced fluorescence was used to determine the intracellular distribution as described above in Example 1. The procedures were the same as described in Example 1 however a pure cDNA clone encoding the vesicle membrane transport protein, selected in the presence of MPP^+, obtained as described herein, was used rather than the primary transformant. […]
The effects of various pharmacologic agents were tested to determine whether the properties of the protein encoded by the mpp^res cDNA corresponded with those expected for the chromaffin granule amine transport protein. […] The cells were pre-incubated in Krebs-Ringer buffer containing 1 μM pargyline and the dose of the drug indicated for 15 minutes. 25 nM [^3 H]-dopamine was then added in the same buffer and after incubation at 37° C. for one hour, the cells were washed in cold Krebs-Ringer buffer, lysed and counted in Ecolite (ICN) as described by Greene and Rein, Brain Res. 129:247-263 (1978). Values were determined from three separate wells and the mean was expressed as percent of control uptake±standard deviation. […] The dose required to inhibit maximal uptake by 50%, Ki, was estimated from the fluorescence data using a range of concentrations for each agent.

[4] = tested on: PC12 cells; settings: percent of control uptake ± SD; agent 10 mM; 25 nM [3H]-dopamine, 1 h, 37° C.
Procedure: (§2) The effects of various pharmacologic agents were tested to determine whether the properties of the protein encoded by the mpp^res cDNA corresponded with those expected for the chromaffin granule amine transport protein. […] The cells were pre-incubated in Krebs-Ringer buffer containing 1 μM pargyline and the dose of the drug indicated for 15 minutes. […] Values were determined from three separate wells and the mean was expressed as percent of control uptake±standard deviation.

[5] = biological target: T1, chromaffin granule amine transport protein; assay: Quantitative [3H]dopamine transport assay with mpp^res CHO cell homogenate; format: biochemical; settings: dose-response, 2-minute incubation (FIG. 15C)
Procedure: The quantity of label bound is measured after filtration of the assay mixture. Preferably, the label is a radioactive label. […] This can be done by standard graphic kinetic techniques such as the Lineweaver-Burke plot.
Incubation was performed at 29° C. for the time period indicated (from 2 minutes to 30 minutes). The assay was terminated by dilution in cold assay buffer followed by filtration through 0.2 μm Supor™ 200 membranes (Gelman, Ann Arbor, Mich.) and the bound radioactivity was measured. The cells used for the quantitative assay are selected in MPP^+ or screened with antibody to ensure that they express the transporter at high levels, as it is difficult to measure activity in this assay at low levels of transporter expression.
The quantitative transport test was performed as described above on wild-type CHO cells and mpp^res CHO cells.

[6] = tested on: plasma membrane monoamine transport activity; settings: cited from earlier work
[7] = tested on: idiopathic PD; settings: in vivo, cited from earlier work
[8] = tested on: monoamine oxidase; settings: cited from earlier work
[9] = tested on: wild-type CHO cells; assay: MTT cytotoxicity assay in wild-type CHO cells; format: cell-based, Chinese hamster; settings: CHO cells (FIG. 6b)
Procedure: (§1) Differential susceptibility to the respiratory complex I inhibitors MPP^+ and rotenone was shown by measuring toxicity by measuring general cell dehydrogenase activity with reduction of a tetrazolium dye (MTT) in a spectrophotometric plate assay as described by Hansen et al., J. Immunol. Methods 119:203-210 (1989). Briefly, a stock solution of MTT (3,(4,5-dimethylthiazol-2-yl)2,5-diphenyltetrazolium bromide) was dissolved at a concentration of 5 mg/ml in sterile phosphate buffered saline at room temperature. To each well was added 25 μl of the stock solution. After two hours of incubation at 37° C., 100 μl of extraction buffer (20% w/v of SDS in a solution of 50% each dimethylformamide and demineralized water with the pH adjusted to 4.7 with acetic acid and HCl). After an overnight incubation at 37° C., the optical densities at 570 nm were measured using a multiscanner, employing the extraction buffer as the blank. This assay was carried out in triplicate on 96-well plates (NUNC, Denmark). MPP^+ and rotenone at the concentrations indicated in FIG. 6a and 6b, respectively, was added to wild-type and MPP^+ -resistant CHO cells at approximately 50% confluence, and toxicity was assayed after 2-3 days by measuring general cell dehydrogenase activity with the reduction of the tetrazolium dye MTT (3,(4,5-dimethylthiazol-2-yl)2,5-diphenyl-tetrazolium bromide). After addition of the dye at a final concentration of 1 mg/ml, the cells were incubated for two hours at 37° C. and the formazan product was solubilized in 10% sodium dodecyl sulfate (SDS). The plates were maintained at 37° C. for an additional twenty hours and the optical density was determined in an ELISA plate reader at a test wavelength of 570 nm, a reference wavelength of 630 nm and a calibration setting of 1.99. All determinations were performed in triplicate and expressed as the mean, with the error bars representing standard deviation (FIG. 6a and 6b).

[10] = tested on: MPP^+ -resistant CHO cells; assay: MTT cytotoxicity assay in MPP+-resistant transfected CHO cells; format: cell-based, Chinese hamster
Procedure: as §1
To determine whether an alteration in the process of respiration was responsible for the resistance to MPP^+, the effects of other known respiratory inhibitors were examined. […] Thus, if the resistance were due to a change in the site of action, the transfected cells should also show resistance to rotenone. […] However, rotenone is considered to have its selected effect on respiration at relatively low doses, and an additional, less specific effect at higher doses.
Therefore, the toxicity of MPP^+ to transfected cells in the presence of 1 μM reserpine was examined.

[11] = tested on: respiratory complex I; settings: cited from earlier work
[12] = tested on: PC12 cells; assay: cells; settings: Rattus norvegicus, PC-12, 1 h, read-out: [^3 H]-Dopamine Uptake (PC12)
Procedure: as §2

[13] = tested on: vesicular amine transport protein; settings: cited from earlier work
[14] = tested on: amine stores; settings: in vivo; cited from earlier work
[15] = tested on: chromaffin cells; settings: co-incubation with MPP+; cited from earlier work
[16] = tested on: complex III of the respiratory chain; settings: cited from earlier work
[17] = tested on: midbrain cells; settings: in vitro; cited from earlier work

For `CN1CC=C(c2ccccc2)CC1` [1-methyl-4-phenyl-1,2,3,6-tetrahydropyridine], the “damage to central dopamine neurons” value [1] is given as “Damage to central dopamine neurons” and the “damage to dopamine nerve terminals” value [2] is given as “dopamine nerve terminals in mice”.

In the case of `Cl.N` [NH4 Cl, ammonium chloride], the “inhibition of vesicular amine uptake/transport (fluorescence assay, in words)” value [3] is reported as “inhibited uptake only partially” and the “[^3 H]-Dopamine Uptake (PC12)” value [4] is reported as 51 ± 3%.

For `COC(=O)[C@H]1[C@@H](OC(=O)c2ccccc2)C[C@@H]2CC[C@H]1N2C` [cocaine], the “inhibition of dopamine transport” value [5] is given as “no inhibition” and the “inhibition of plasma membrane monoamine transport” value [6] is given as “inhibiting this activity”.

For `C#CCN(C)C(C)Cc1ccccc1` (stereo not shown) [deprenyl], the “rate of progression of Parkinson's disease” value [7] is given as “slow the rate of progression of the disease”, the “rate of progression of Parkinson's disease” value ([7]; listed as Deprenyl) is given as “appears to slow the rate of progression” and the “inhibition of monoamine oxidase” value [8] is given as “inhibits the enzyme that activates MPTP, monoamine oxidase”.

For `C=C(C)[C@H]1Cc2c(ccc3c2O[C@@H]2COc4cc(OC)c(OC)cc4[C@@H]2C3=O)O1` [rotenone], the “rotenone toxicity pattern (MTT assay)” value [9] is given as “biphasic pattern”, the “resistance of the transfectant to rotenone” value ([10]; vs wild-type) is given as “no substantial resistance” and the “inhibition of respiratory complex I” value [11] is given as “inhibits complex I”.

In the case of `COc1cc2c(cc1OC)C1CC(=O)C(CC(C)C)CN1CC2` (stereo not shown) [tetrabenazine], the “inhibition of vesicular amine uptake/transport (fluorescence assay, in words)” value [3] is reported as “inhibited transport, but at high concentrations”, the Ki ([3]; dose required to inhibit maximal uptake by 50%, estimated from fluorescence data, read-out: Ki (est)) is reported as 100 µM and the “inhibition of dopamine transport” value [5] is reported as “inhibition by both reserpine and tetrabenazine”. The activity at 100 µM [12] was 45 ± 2%, the “inhibition of vesicular amine transport” value [13] was “an inhibitor of vesicular uptake; also recorded: inhibit this transport activity” and the “potency to deplete central rather than adrenal amine stores” value [14] was “greater potency of that drug to deplete central rather than adrenal amine stores”. The “effect on MPP+ toxicity to chromaffin cells” value [15] was “chromaffin cell toxicity was potentiated”.

For oligomycin, the oligomycin toxicity pattern ([10]; wild-type vs resistant transfected CHO cells) is given as “same pattern of toxicity in wild-type and in resistant transfected CHO cells” and the “inhibition of respiratory complex III” value [16] is given as “inhibits complex III”.

B1: brain-derived neurotrophic factor (BDNF): neurotrophic factors such as brain-derived neurotrophic factor (BDNF) (protein, UniProt P23560 19-247, looked up)
Neurotrophic factor BDNF …: APMKEANIRGQGGLAYPGVRTHGTLESVNGPKAGSRGLTSLADTFEHVIEELLDEDQKVRPNEENNKDADLYTSRVMLSSQVPLEPPLLFLLEEYKNYLDAANMSMRVRRHSDPARRGELSVCDSISEWVTAADKKTAVDMSGGTVTVLEKVPVSKGQLKQYFYETKCNPMGYTKEGCRGIDKRHWNSQCRTTQSYVRALTMDSKKRIGWRFIRIDTSCVCTLTIKRGR
In the case of B1, the “protection of midbrain cells from MPP+” value [17] is given as “can protect midbrain cells from MPP^+ in vitro”.
